Patent publication US10856562B2, “Flavor composition and edible compositions containing same” (MARS, INCORPORATED, priority 2013, dated 2020)
Square brackets hold non-standard residues; d marks the D form. Ends that are not written are not given here. pGlu = O=C1CC[C@@H](C(=O)O)N1

System: panelists
Assay: Consensus attribute scores of flavor enhancers in Uncle Ben's Garden Vegetable Ready rice
Format: in vivo, human
Parameters: key to Cooked White Rice / Vegetable Oil / Vegetable Complex / Cooked Green Vegetable / Cooked Corn / Sweet (BASIC TASTES) / Salt (BASIC TASTES) / Mouthdrying (Texture) / Residual Mouthcoating (Texture) / Total Aromatics / Bitter (BASIC TASTES): 15-point scale, 0 = none, 15 = very strong
Details: for Black Pepper / Cooked Corn / Cooked Green Vegetable / Cooked White Rice / Dehydrated onion/garlic / HVP/Brothy / Heat (Chemical Feeling Factors) / Mineral/Flint / Mouthdrying (Texture) / Residual Mouthcoating (Texture) / Salt (BASIC TASTES) / Sweet (BASIC TASTES) / Total Aromatics / Umami (Chemical Feeling Factors) / Vegetable Complex / Vegetable Oil / Bitter (BASIC TASTES) / Salt Burn (Chemical Feeling Factors): rice
Procedure: Descriptive attributes (e.g., taste, flavor and chemical feeling factors) of three use levels of pGlu-Cys (FE-35), pGlu-Cys-Gly (FE-36), pGlu-Cys-Cys (FE-37), pGlu-Cys-Val (FE-38) and pGlu-Val-Cys (UE-30) flavor composition peptides were determined. The three use levels were as follows: 1.0 ppb, 10.0 ppb and 100.0 ppb.
Data was collected for the attributes of the product in-mouth for the use levels according to the following protocol: • The samples were analyzed for flavor by six to nine members of a panel, trained and experienced in flavor evaluation using the Spectrum™ method. Samples were evaluated across multiple panel sessions. • The strength of each attribute was rated on a 15-point scale, where 0=none and 15=very strong. • This scale incorporates the ability to use tenths of a point and therefore has the potential of 150 scale differentiations. • The scale may be expanded beyond 15 points to include extreme ratings if necessary.
Preparation of Rice Samples • Each flavor enhancer was tested in Uncle Ben's Garden Vegetable Ready rice matrix at 3 different concentrations: 1 ppb, 10 ppb and 100 ppb. A total of 15 points with flavor enhancers were prepared for sensory evaluation. Additionally, 15 control samples were prepared. Each point had 2 samples (test and control) and was made from one pouch of rice. • Directions to prepare the solutions: • The 15 ready- to eat pouches were microwaved according to the procedure found on the back of the pouch: (1) squeeze pouch to separate rice, (2) tear two inches to vent, (3) heat on High for 90 seconds and (4) remove from microwave using COOL TOUCH area on untorn side. • From each pouch 124.75 g (test sample) and 99.8 g (control) were weighed out. The test sample had the flavor enhancer and/or salt. The control sample only had salt added. • The flavor enhancer and/or salt (non-iodized salt) were weighed in a soufflé cup. The weighed amount of flavor enhancer and/or salt was added to the sub-sampled rice. The rice was stirred and mixed to evenly distribute the salt added. • Some rice was placed back into the soufflé cup, sealed, and the cup was shook to get the flavor enhancer and/or salt that may have been stuck on the walls of the soufflé cup. After shaking the soufflé cup, the rice was added back to the original sub-sampled rice and stirred/mixed again. • Each sample (test and control) was microwaved for another 30 seconds (or until warm) to ensure that the salts/compounds were going completely into the solutions. • All samples (test and control) were tasted at the same temperature. • Each test sample had 0.2% NaCl added and flavor enhancers at the specified concentrations.
A summary of the concentrations of NaCl and flavor composition peptides in the rice samples is described in table 23. The first value of each cell represents a single sample amount of an ingredient in milligrams, and the second number in parenthesis is a doubling of the ingredient (in grams) for use in a doubled size sample.
The panelists evaluated each sample for the attributes described by table 25.

[pGlu]-Cys [FE-35]
Umami feeling factor in rice compared to the Control (10 & 100 ppb): higher | Salt in rice compared to the Control (100 ppb): saltier than the Control | Heat in rice, not seen in the Control (all concentrations): low level | Cooked green vegetable in rice compared to the Control (all samples (1, 10, 100 ppb)): low level of cooked green vegetable | Mouthdrying in rice, not seen in the Control (all samples (1, 10, 100 ppb)): low level | Total aromatics in rice (at 50 ppm): slightly lower | Black Pepper (1.0 ppb (5 ppm)): 1.0 | Cooked Corn (1.0 ppb (5 ppm)): 0.5 | Cooked Green Vegetable (1.0 ppb (5 ppm)): 0.5 | Cooked White Rice (1.0 ppb (5 ppm)): 3.0 | Dehydrated onion/garlic (1.0 ppb (5 ppm)): 0.8 | HVP/Brothy (1.0 ppb (5 ppm)): 1.0 | Heat (Chemical Feeling Factors) (1.0 ppb (5 ppm)): 0.8 | Mineral/Flint (1.0 ppb (5 ppm)): 0.8 | Mouthdrying (Texture) (1.0 ppb (5 ppm)): 1.5 | Residual Mouthcoating (Texture) (1.0 ppb (5 ppm)): 1.0 | Salt (BASIC TASTES) (1.0 ppb (5 ppm)): 13.0 | Sweet (BASIC TASTES) (1.0 ppb (5 ppm)): 3.5 | Total Aromatics (1.0 ppb (5 ppm)): 6.3 | Umami (Chemical Feeling Factors) (1.0 ppb (5 ppm)): 1.0 | Vegetable Complex (1.0 ppb (5 ppm)): 1.0 | Vegetable Oil (1.0 ppb (5 ppm)): 0.5 | Black Pepper (10.0 ppb (50 ppm)): 0.8 | Cooked Corn (10.0 ppb (50 ppm)): 0.8 | Cooked Green Vegetable (10.0 ppb (50 ppm)): 0.8 | Cooked White Rice (10.0 ppb (50 ppm)): 3.0 | Dehydrated onion/garlic (10.0 ppb (50 ppm)): 0.8 | HVP/Brothy (10.0 ppb (50 ppm)): 1.0 | Heat (Chemical Feeling Factors) (10.0 ppb (50 ppm)): 0.5 | Mineral/Flint (10.0 ppb (50 ppm)): 1.3 | Mouthdrying (Texture) (10.0 ppb (50 ppm)): 1.0 | Residual Mouthcoating (Texture) (10.0 ppb (50 ppm)): 1.0 | Salt (BASIC TASTES) (10.0 ppb (50 ppm)): 13.5 | Sweet (BASIC TASTES) (10.0 ppb (50 ppm)): 3.5 | Total Aromatics (10.0 ppb (50 ppm)): 6.0 | Umami (Chemical Feeling Factors) (10.0 ppb (50 ppm)): 3.0 | Vegetable Complex (10.0 ppb (50 ppm)): 1.3 | Vegetable Oil (10.0 ppb (50 ppm)): 0.5 | Black Pepper (100 ppb (50 ppm)): 1.0 | Cooked Corn (100 ppb (50 ppm)): 0.8 | Cooked Green Vegetable (100 ppb (50 ppm)): 0.8 | Cooked White Rice (100 ppb (50 ppm)): 3.0 | Dehydrated onion/garlic (100 ppb (50 ppm)): 1.0 | HVP/Brothy (100 ppb (50 ppm)): 1.0 | Heat (Chemical Feeling Factors) (100 ppb (50 ppm)): 0.5 | Mineral/Flint (100 ppb (50 ppm)): 1.0 | Mouthdrying (Texture) (100 ppb (50 ppm)): 1.0 | Residual Mouthcoating (Texture) (100 ppb (50 ppm)): 1.0 | Salt (BASIC TASTES) (100 ppb (50 ppm)): 15.0 | Sweet (BASIC TASTES) (100 ppb (50 ppm)): 3.5 | Total Aromatics (100 ppb (50 ppm)): 6.5 | Umami (Chemical Feeling Factors) (100 ppb (50 ppm)): 4.0 | Vegetable Complex (100 ppb (50 ppm)): 1.5 | Vegetable Oil (100 ppb (50 ppm)): 0.8

[pGlu]-Cys-Cys (cysteine pairing not given here) [FE-37]
Bitter in rice (all samples (1, 10, 100 ppb)): low in bitter | Cooked green vegetable in rice compared to the Control (all samples (1, 10, 100 ppb)): low level of cooked green vegetable | Mineral/flint note in rice, not seen in the Control (all samples (1, 10, 100 ppb)): low mineral/flint note | Mouthdrying in rice, not seen in the Control (all samples (1, 10, 100 ppb)): have mouthdrying | Salt burn feeling factor in rice compared to the Control (all samples (1, 10, 100 ppb)): higher | Salt in rice compared to the Control (all samples (1, 10, 100 ppb)): saltier than the Control | Umami feeling factor in rice compared to the Control (all samples (1, 10, 100 ppb)): higher | Bitter (BASIC TASTES) (1.0 ppb (5 ppm)): 0.8 | Black Pepper (1.0 ppb (5 ppm)): 1.0 | Cooked Corn (1.0 ppb (5 ppm)): 0.5 | Cooked Green Vegetable (1.0 ppb (5 ppm)): 0.5 | Cooked White Rice (1.0 ppb (5 ppm)): 3.0 | Dehydrated onion/garlic (1.0 ppb (5 ppm)): 1.3 | HVP/Brothy (1.0 ppb (5 ppm)): 1.0 | Mineral/Flint (1.0 ppb (5 ppm)): 0.8 | Mouthdrying (Texture) (1.0 ppb (5 ppm)): 1.0 | Residual Mouthcoating (Texture) (1.0 ppb (5 ppm)): 1.0 | Salt (BASIC TASTES) (1.0 ppb (5 ppm)): 15.0 | Salt Burn (Chemical Feeling Factors) (1.0 ppb (5 ppm)): 0.8 | Sweet (BASIC TASTES) (1.0 ppb (5 ppm)): 3.0 | Total Aromatics (1.0 ppb (5 ppm)): 6.0 | Umami (Chemical Feeling Factors) (1.0 ppb (5 ppm)): 1.5 | Vegetable Complex (1.0 ppb (5 ppm)): 1.0 | Vegetable Oil (1.0 ppb (5 ppm)): 0.8 | Bitter (BASIC TASTES) (10.0 ppb (50 ppm)): 1.5 | Black Pepper (10.0 ppb (50 ppm)): 1.0 | Cooked Corn (10.0 ppb (50 ppm)): 0.5 | Cooked Green Vegetable (10.0 ppb (50 ppm)): 0.5 | Cooked White Rice (10.0 ppb (50 ppm)): 3.0 | Dehydrated onion/garlic (10.0 ppb (50 ppm)): 1.5 | HVP/Brothy (10.0 ppb (50 ppm)): 1.5 | Mineral/Flint (10.0 ppb (50 ppm)): 0.8 | Mouthdrying (Texture) (10.0 ppb (50 ppm)): 1.5 | Residual Mouthcoating (Texture) (10.0 ppb (50 ppm)): 1.0 | Salt (BASIC TASTES) (10.0 ppb (50 ppm)): 15.5 | Salt Burn (Chemical Feeling Factors) (10.0 ppb (50 ppm)): 1.3 | Sweet (BASIC TASTES) (10.0 ppb (50 ppm)): 3.5 | Total Aromatics (10.0 ppb (50 ppm)): 6.5 | Umami (Chemical Feeling Factors) (10.0 ppb (50 ppm)): 2.5 | Vegetable Complex (10.0 ppb (50 ppm)): 1.0 | Vegetable Oil (10.0 ppb (50 ppm)): 0.8 | Bitter (BASIC TASTES) (100 ppb (50 ppm)): 1.0 | Black Pepper (100 ppb (50 ppm)): 1.0 | Cooked Corn (100 ppb (50 ppm)): 0.8 | Cooked Green Vegetable (100 ppb (50 ppm)): 0.8 | Cooked White Rice (100 ppb (50 ppm)): 3.0 | Dehydrated onion/garlic (100 ppb (50 ppm)): 1.5 | HVP/Brothy (100 ppb (50 ppm)): 1.5 | Mineral/Flint (100 ppb (50 ppm)): 1.0 | Mouthdrying (Texture) (100 ppb (50 ppm)): 1.5 | Residual Mouthcoating (Texture) (100 ppb (50 ppm)): 1.0 | Salt (BASIC TASTES) (100 ppb (50 ppm)): 16.0 | Salt Burn (Chemical Feeling Factors) (100 ppb (50 ppm)): 1.8 | Sweet (BASIC TASTES) (100 ppb (50 ppm)): 3.5 | Total Aromatics (100 ppb (50 ppm)): 6.5 | Umami (Chemical Feeling Factors) (100 ppb (50 ppm)): 3.0 | Vegetable Complex (100 ppb (50 ppm)): 1.5 | Vegetable Oil (100 ppb (50 ppm)): 0.8

[pGlu]-Cys-Gly [FE-36]
Salt burn in rice (100 ppb): low level of salt burn | Bitter in rice (all samples (1, 10, 100 ppb)): slightly bitter | Cooked green vegetable in rice compared to the Control (all samples (1, 10, 100 ppb)): low level of cooked green vegetable | Mouthdrying in rice, not seen in the Control (all samples (1, 10, 100 ppb)): have mouthdrying | Umami feeling factor in rice compared to the Control (all samples (1, 10, 100 ppb)): higher in umami | Bitter (BASIC TASTES) (1.0 ppb (5 ppm)): 0.5 | Black Pepper (1.0 ppb (5 ppm)): 1.0 | Cooked Corn (1.0 ppb (5 ppm)): 1.0 | Cooked Green Vegetable (1.0 ppb (5 ppm)): 0.5 | Cooked White Rice (1.0 ppb (5 ppm)): 3.0 | Dehydrated onion/garlic (1.0 ppb (5 ppm)): 1.0 | HVP/Brothy (1.0 ppb (5 ppm)): 1.0 | Mouthdrying (Texture) (1.0 ppb (5 ppm)): 1.0 | Residual Mouthcoating (Texture) (1.0 ppb (5 ppm)): 1.0 | Salt (BASIC TASTES) (1.0 ppb (5 ppm)): 11.5 | Salt Burn (Chemical Feeling Factors) (1.0 ppb (5 ppm)): 0.0 | Sweet (BASIC TASTES) (1.0 ppb (5 ppm)): 3.5 | Total Aromatics (1.0 ppb (5 ppm)): 6.0 | Umami (Chemical Feeling Factors) (1.0 ppb (5 ppm)): 1.5 | Vegetable Complex (1.0 ppb (5 ppm)): 1.5 | Vegetable Oil (1.0 ppb (5 ppm)): 0.8 | Bitter (BASIC TASTES) (10.0 ppb (50 ppm)): 1.0 | Black Pepper (10.0 ppb (50 ppm)): 1.0 | Cooked Corn (10.0 ppb (50 ppm)): 1.0 | Cooked Green Vegetable (10.0 ppb (50 ppm)): 1.0 | Cooked White Rice (10.0 ppb (50 ppm)): 3.0 | Dehydrated onion/garlic (10.0 ppb (50 ppm)): 1.5 | HVP/Brothy (10.0 ppb (50 ppm)): 1.0 | Mouthdrying (Texture) (10.0 ppb (50 ppm)): 1.5 | Residual Mouthcoating (Texture) (10.0 ppb (50 ppm)): 1.0 | Salt (BASIC TASTES) (10.0 ppb (50 ppm)): 13.5 | Salt Burn (Chemical Feeling Factors) (10.0 ppb (50 ppm)): 0.0 | Sweet (BASIC TASTES) (10.0 ppb (50 ppm)): 3.5 | Total Aromatics (10.0 ppb (50 ppm)): 6.5 | Umami (Chemical Feeling Factors) (10.0 ppb (50 ppm)): 3.0 | Vegetable Complex (10.0 ppb (50 ppm)): 2.0 | Vegetable Oil (10.0 ppb (50 ppm)): 0.8 | Bitter (BASIC TASTES) (100 ppb (50 ppm)): 0.5 | Black Pepper (100 ppb (50 ppm)): 0.8 | Cooked Corn (100 ppb (50 ppm)): 0.8 | Cooked Green Vegetable (100 ppb (50 ppm)): 0.8 | Cooked White Rice (100 ppb (50 ppm)): 3.0 | Dehydrated onion/garlic (100 ppb (50 ppm)): 1.3 | HVP/Brothy (100 ppb (50 ppm)): 1.0 | Mouthdrying (Texture) (100 ppb (50 ppm)): 2.0 | Residual Mouthcoating (Texture) (100 ppb (50 ppm)): 1.0 | Salt (BASIC TASTES) (100 ppb (50 ppm)): 13.5 | Salt Burn (Chemical Feeling Factors) (100 ppb (50 ppm)): 1.0 | Sweet (BASIC TASTES) (100 ppb (50 ppm)): 3.5 | Total Aromatics (100 ppb (50 ppm)): 6.3 | Umami (Chemical Feeling Factors) (100 ppb (50 ppm)): 4.0 | Vegetable Complex (100 ppb (50 ppm)): 1.5 | Vegetable Oil (100 ppb (50 ppm)): 0.8
